Reference: ChEMBL document CHEMBL6127132, “Design, Synthesis, and Biological Evaluation of Novel Diaminopyrimidine Macrocycles as Fourth Generation Reversible EGFR Inhibitors That Overcome Clinical Resistance to Osimertinib Mediated by C797S Mutation” (J Med Chem, 2024)

Tests used:
[1] = Half-life in male SPF Sprague-Dawley rat at 10 mg/kg, po measured after 24 hrs by LC-MS/MS analysis; format: ADME, organism-based; conditions: in vivo
[2] = Half-life in male SPF Sprague-Dawley rat at 2 mg/kg, iv measured after 24 hrs by LC-MS/MS analysis; format: ADME, organism-based; conditions: in vivo
[3] = Tmax in male SPF Sprague-Dawley rat at 10 mg/kg, po measured after 24 hrs by LC-MS/MS analysis; format: ADME, organism-based; conditions: in vivo
[4] = Oral bioavailability in male SPF Sprague-Dawley rat at 10 mg/kg measured after 24 hrs by LC-MS/MS analysis; format: ADME, organism-based; conditions: in vivo
[5] = tested on: BaF3; assay: Induction of apoptosis in mouse BaF3 cells harboring EGFR 19del/T790M/C797S mutant assessed as caspase 3 cleavage incubated for 48 hrs by Western blot analysis; format: functional, cell-based; conditions: dose 30-1000 nM
[6] = tested on: BaF3; assay: Antitumor activity against mouse BaF3 cells harboring 19del/T790M/C797S mutant implanted in female BALB/c nu/nu mouse assessed as tumor growth inhibition at 20 mg/kg, po administered once daily for 9 days relative to control; format: functional; conditions: BaF3, 216 h, time 9 day, read-out: TGI
[7] = Cmax in male SPF Sprague-Dawley rat at 2 mg/kg, iv measured after 24 hrs by LC-MS/MS analysis; format: ADME, organism-based; conditions: in vivo
[8] = tested on: A-431; assay: cells; conditions: Homo sapiens, A-431, 72 h
Description: Antiproliferative activity against human A-431 cells harboring wildtype EGFR assessed as inhibition of cell proliferation measured after 72 hrs by SRB assay

[9] = biological target: Epidermal growth factor receptor (Mus musculus) (UniProt Q01279); assay: Inhibition of EGFR phosphorylation in mouse BaF3 cells harboring EGFR L858R/T790M/C797S mutant preincubated for 2 hrs followed by EGF stimulation and measured after 15 mins by Western blot analysis; format: cell-based; conditions: dose 1-1000 nM, time 135.0 min
Epidermal growth factor receptor (Mus musculus), sequence (Q01279 whole entry): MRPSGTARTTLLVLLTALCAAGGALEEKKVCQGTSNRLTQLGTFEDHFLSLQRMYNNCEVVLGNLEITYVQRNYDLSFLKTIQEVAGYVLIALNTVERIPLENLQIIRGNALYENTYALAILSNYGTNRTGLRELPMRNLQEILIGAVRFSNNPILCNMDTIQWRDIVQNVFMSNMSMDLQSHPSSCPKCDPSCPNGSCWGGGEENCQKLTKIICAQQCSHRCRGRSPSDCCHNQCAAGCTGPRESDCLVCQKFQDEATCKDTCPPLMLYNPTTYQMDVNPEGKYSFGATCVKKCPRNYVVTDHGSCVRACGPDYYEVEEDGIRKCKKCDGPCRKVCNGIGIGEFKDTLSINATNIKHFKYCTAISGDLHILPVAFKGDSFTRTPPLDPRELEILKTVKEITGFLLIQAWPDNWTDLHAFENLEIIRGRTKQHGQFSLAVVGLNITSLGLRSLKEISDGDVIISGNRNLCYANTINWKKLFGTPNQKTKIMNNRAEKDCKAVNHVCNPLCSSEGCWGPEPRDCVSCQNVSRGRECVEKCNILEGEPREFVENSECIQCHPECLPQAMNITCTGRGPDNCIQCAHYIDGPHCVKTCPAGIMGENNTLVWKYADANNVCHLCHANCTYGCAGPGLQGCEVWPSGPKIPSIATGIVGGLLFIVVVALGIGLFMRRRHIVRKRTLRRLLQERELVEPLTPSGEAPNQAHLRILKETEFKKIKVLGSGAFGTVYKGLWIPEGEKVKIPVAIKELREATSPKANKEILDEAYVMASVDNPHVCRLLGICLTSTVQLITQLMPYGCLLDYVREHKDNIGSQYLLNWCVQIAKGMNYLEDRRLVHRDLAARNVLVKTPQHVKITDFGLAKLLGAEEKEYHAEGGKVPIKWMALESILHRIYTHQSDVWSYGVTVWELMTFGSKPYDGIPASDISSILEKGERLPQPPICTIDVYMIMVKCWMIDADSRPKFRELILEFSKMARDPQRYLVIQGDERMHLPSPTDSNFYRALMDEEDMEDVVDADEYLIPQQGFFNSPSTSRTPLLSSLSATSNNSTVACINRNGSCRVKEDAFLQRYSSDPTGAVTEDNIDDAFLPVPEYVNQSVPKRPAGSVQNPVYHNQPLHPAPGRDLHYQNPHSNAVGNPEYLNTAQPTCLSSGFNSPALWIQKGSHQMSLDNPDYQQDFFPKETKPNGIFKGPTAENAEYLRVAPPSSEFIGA

[10] = Toxicity in female BALB/c nu/nu mouse implanted with mouse BaF3 cells harboring 19del/T790M/C797S mutant assessed as mortality at 20 mg/kg, po administered once daily for 9 days; format: organism-based; conditions: in vivo, 216 h, time 9 day
[11] = Clearance in male SPF Sprague-Dawley rat at 2 mg/kg, iv measured after 24 hrs by LC-MS/MS analysis; format: ADME, organism-based; conditions: in vivo
[12] = Induction of apoptosis in mouse BaF3 cells harboring EGFR 19del/T790M/C797S mutant assessed as early apoptotic cells at 300 nM incubated for 48 hrs by Annexin V-FITC/PI staining based flow cytometric analysis (reference value: 0.46 %); format: functional
[13] = Induction of apoptosis in mouse BaF3 cells harboring EGFR 19del/T790M/C797S mutant assessed as early apoptotic cells at 1000 nM incubated for 48 hrs by Annexin V-FITC/PI staining based flow cytometric analysis (reference value: 0.46 %); format: functional
[14] = tested on: BaF3; assay: cells; conditions: Mus musculus, BaF3, 72 h
[15] = Induction of apoptosis in mouse BaF3 cells harboring EGFR 19del/T790M/C797S mutant assessed as late apoptotic cells at 100 nM incubated for 48 hrs by Annexin V-FITC/PI staining based flow cytometric analysis (reference value: 2.29 %); format: functional
[16] = AUC (0 to t) in male SPF Sprague-Dawley rat at 2 mg/kg, iv measured after 24 hrs by LC-MS/MS analysis; format: ADME, organism-based; conditions: in vivo
[17] = biological target: Epidermal growth factor receptor (Mus musculus) (UniProt Q01279); assay: Inhibition of EGFR phosphorylation in mouse BaF3 cells harboring EGFR 19del/T790M/C797S mutant preincubated for 2 hrs followed by EGF stimulation and measured after 15 mins by Western blot analysis; format: cell-based; conditions: dose 1-1000 nM, time 135.0 min
[18] = Induction of apoptosis in mouse BaF3 cells harboring EGFR 19del/T790M/C797S mutant assessed as early apoptotic cells at 30 nM incubated for 48 hrs by Annexin V-FITC/PI staining based flow cytometric analysis (reference value: 0.46 %); format: functional
[19] = Induction of apoptosis in mouse BaF3 cells harboring EGFR 19del/T790M/C797S mutant assessed as late apoptotic cells at 1000 nM incubated for 48 hrs by Annexin V-FITC/PI staining based flow cytometric analysis (reference value: 2.29 %); format: functional
[20] = Tmax in male SPF Sprague-Dawley rat at 2 mg/kg, iv measured after 24 hrs by LC-MS/MS analysis; format: ADME, organism-based; conditions: in vivo
[21] = Induction of apoptosis in mouse BaF3 cells harboring EGFR 19del/T790M/C797S mutant assessed as early apoptotic cells at 100 nM incubated for 48 hrs by Annexin V-FITC/PI staining based flow cytometric analysis (reference value: 0.46 %); format: functional
[22] = Antiproliferative activity against mouse BaF3 cells assessed as inhibition of cell proliferation incubated for 72 hrs by CCK-8 assay; format: toxicity, cell-based
[23] = biological target: Epidermal growth factor receptor (Mus musculus) (UniProt Q01279); assay: Inhibition of EGFR downstream signaling in mouse BaF3 cells harboring EGFR L858R/T790M/C797S mutant assessed as reduction in phosphorylated ERK level preincubated for 2 hrs followed by EGF stimulation and measured after 15 mins by Western blot analysis; format: cell-based; conditions: dose 1-1000 nM, time 135.0 min
[24] = Induction of apoptosis in mouse BaF3 cells harboring EGFR 19del/T790M/C797S mutant assessed as late apoptotic cells at 30 nM incubated for 48 hrs by Annexin V-FITC/PI staining based flow cytometric analysis (reference value: 2.29 %); format: functional
[25] = MRT (0 to t) in male SPF Sprague-Dawley rat at 2 mg/kg, iv measured after 24 hrs by LC-MS/MS analysis; format: ADME, organism-based; conditions: in vivo
[26] = Cmax in male SPF Sprague-Dawley rat at 10 mg/kg, po measured after 24 hrs by LC-MS/MS analysis; format: ADME, organism-based; conditions: in vivo
[27] = biological target: Epidermal growth factor receptor (Mus musculus) (UniProt Q01279); assay: Inhibition of EGFR downstream signaling in mouse BaF3 cells harboring EGFR 19del/T790M/C797S mutant assessed as reduction in phosphorylated ERK level preincubated for 2 hrs followed by EGF stimulation and measured after 15 mins by Western blot analysis; format: cell-based; conditions: dose 1-1000 nM, time 135.0 min
[28] = Toxicity in female BALB/c nu/nu mouse implanted with mouse BaF3 cells harboring 19del/T790M/C797S mutant assessed as body weight loss at 20 mg/kg, po administered once daily for 9 days; format: organism-based; conditions: in vivo, 216 h, time 9 day
[29] = Induction of apoptosis in mouse BaF3 cells harboring EGFR 19del/T790M/C797S mutant assessed as late apoptotic cells at 300 nM incubated for 48 hrs by Annexin V-FITC/PI staining based flow cytometric analysis (reference value: 2.29 %); format: functional
[30] = MRT (0 to t) in male SPF Sprague-Dawley rat at 10 mg/kg, po measured after 24 hrs by LC-MS/MS analysis; format: ADME, organism-based; conditions: in vivo
[31] = AUC (0 to infinity) in male SPF Sprague-Dawley rat at 10 mg/kg, po measured after 24 hrs by LC-MS/MS analysis; format: ADME, organism-based; conditions: in vivo
[32] = AUC (0 to t) in male SPF Sprague-Dawley rat at 10 mg/kg, po measured after 24 hrs by LC-MS/MS analysis; format: ADME, organism-based; conditions: in vivo
[33] = cells; conditions: Homo sapiens, PC9-OR, 72 h
[34] = tested on: BaF3; assay: cells; conditions: Mus musculus, BaF3, 72 h; remark: listed apart in the source
[35] = AUC (0 to infinity) in male SPF Sprague-Dawley rat at 2 mg/kg, iv measured after 24 hrs by LC-MS/MS analysis; format: ADME, organism-based; conditions: in vivo

COc1cc(N2CCOCC2)c2cc1Nc1ncc(C)c(n1)Nc1ccc(cc1P(C)(C)=O)OCCCn1cc-2cn1
half-life [1]: 4.32 h
half-life [2]: 5.54 h
Tmax [3]: 1.67 h
bioavailability [4]: 47%
Activity [5]: Dose-Dependent Effect
inhibition in vivo at 20 mg/kg [6]: 65.4%
Cmax [7]: 2150 ng/mL
IC50 [8]: 0.246 µM
inhibition [9]: Dose-Dependent Effect
Activity [10]: Non-Toxic
clearance [11]: 4.27 mL/min/kg
Activity [12]: 34.23%
Activity [13]: 71.63%
IC50 [14]: 0.052 µM
Activity [15]: 3.44%
AUC(0-t) at 24 h [16]: 7630 ng·h/mL
inhibition [17]: Dose-Dependent Effect
Activity [18]: 2.26%
Activity [19]: 17.31%
Tmax [20]: 4.98 min
Activity [21]: 5.98%
IC50 at 72 h [22]: 2.1 µM
inhibition [23]: Dose-Dependent Effect
Activity [24]: 1.64%
MRT last at 24 h [25]: 3.89 h
Cmax [26]: 1820 ng/mL
inhibition [27]: Dose-Dependent Effect
Activity [28]: Non-Toxic
Activity [29]: 16.34%
MRT last at 24 h [30]: 5.86 h
AUC(0-inf) [31]: 18500 ng·h/mL
AUC(0-t) at 24 h [32]: 18000 ng·h/mL
IC50 [33]: 0.056 µM
IC50 [34]: 0.041 µM
AUC(0-inf) [35]: 7900 ng·h/mL
